According to ChEMBL document CHEMBL4699514, “Glucose Uptake-Stimulating Galloyl Ester Triterpenoids from Castanopsis sieboldii” (2020):
Calls of active or inactive are those of the source. No cut-off for these calls is given here.

Tests used:
[1] = tested on: 3T3-L1; assay: Induction of glucose uptake in mouse 3T3-L1 adipocytes assessed as [3H]2-deoxy-D-glucose uptake incubated for 1 hr followed by [3H]2-deoxy-D-glucose addition by fluorescence microscopic method; assay type: functional; settings: read-out: ED50 (the source's name)
[2] = tested on: C2C12; assay: Activation of AMPK pathway in mouse C2C12 cells assessed as increase in AMPK phosphorylation at 10 to 20 uM after 60 mins by Western blot analysis; assay type: cell-based; settings: filed as activator, dose microM 10-20, time 60.0 min

Structure (SMILES) | EC50 [1] [µM] | Activity [2]
CC1(C)CC[C@]2(C(=O)O[C@@H]3O[C@H](CO)[C@@H](O)[C@H](O)[C@H]3O)CC[C@]3(C)C(=CC[C@@H]4[C@@]5(C)C[C@@H](O)[C@H](OC(=O)c6cc(O)c(O)c(O)c6)[C@](CO)(COC(=O)c6cc(O)c(O)c(O)c6)[C@@H]5CC[C@]43C)[C@@H]2C1 | 12.1 | Active
CC1(C)CC[C@]2(C(=O)O)CC[C@]3(C)C(=CC[C@@H]4[C@@]5(C)C[C@@H](O)[C@H](O)C(CO)(CO)[C@@H]5CC[C@]43C)[C@@H]2C1 | 6.89 | 
CC1(C)CC[C@]2(C(=O)O[C@@H]3O[C@H](CO)[C@@H](O)[C@H](O)[C@H]3O)CC[C@]3(C)C(=CC[C@@H]4[C@@]5(C)C[C@@H](O)[C@H](OC(=O)c6cc(O)c(O)c(O)c6)C6(COC(=O)c7cc(O)c(O)c(O)c7-c7c(cc(O)c(O)c7O)C(=O)OC6)[C@@H]5CC[C@]43C)[C@@H]2C1 | 10.6 | 
